Experimental findings from PMC4626104, “Inhibition on Proteasome β1 Subunit Might Contribute to the Anti-Cancer Effects of Fangchinoline in Human Prostate Cancer Cells” (PLoS ONE, 2015) are described below.

Each structure is given as a SMILES string.

The target in assay [1] is T1, recombinant human proteasome β1 subunit (Homo sapiens, UniProt P28072).
T1 construct: His-Tag; made in house; host or cells: Escherichia coli
T1 sequence (P28072 1-239): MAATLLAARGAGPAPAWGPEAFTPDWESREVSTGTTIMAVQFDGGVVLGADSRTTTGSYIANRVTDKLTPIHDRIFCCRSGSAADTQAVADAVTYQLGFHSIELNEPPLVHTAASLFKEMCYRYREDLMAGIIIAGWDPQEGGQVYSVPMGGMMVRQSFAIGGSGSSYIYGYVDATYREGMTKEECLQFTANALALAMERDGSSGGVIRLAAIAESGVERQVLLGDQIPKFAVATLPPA
As to the kind of experiment: Enzyme activity of recombinant proteasome catalytic β1 subunit (Z-LLE-AMC). The class given is biochemical. The note with it: 50 μM Z-LLE-AMC, 2 h incubation. How it is done: Briefly, catalytic activity of the recombinant human proteasome β1 subunit was assayed by adding recombinant β1 subunit protein (30 μg) to 100 μL of proteasome activity assay buffer (10 mM Tris-HCL, pH 7.8, 5 mM adenosine triphosphate, 0.5 mM dithiothreitol and 5 mM MgCL2•6H2O) containing 50 μM Z-LLE-AMC in the presence of fangchinoline or tetrandrine at different concentrations or not. The hydrolase activity of the proteasome catalytic β1 subunit could release the fluorogenic AMC component from substrate Z-LLE-AMC and the AMC release was measured after 2 h incubation using a Microplate Reader Bio-Rad 550 with excitation and emission wavelengths of 360 and 465 nm, respectively.

The target in assay [2] is T1, recombinant human proteasome β1 subunit. Nature of the assay: Surface plasmon resonance (Biacore) binding assay. As for the experimental part: The recombinant human proteasome β1 subunit, product of PSMB6 gene, was expressed as His-Tag proteins using Escherichia coli, and then purified by affinity chromatography as reported in our previous study. The binding affinities of fangchinoline or tetrandrine to recombinant proteasome catalytic β1 subunit, were assayed in vitro using an Biacore 3000 instrument (Biacore AB, Rapsgatan 7, S-754 50 Uppsala, Sweden) as reported before. Briefly, recombinant proteasome β1 subunit protein was immobilized on a CM5 sensor chip as ligand in 11624.5 RU with N-ethyl-N’-(3-dimethylaminopropyl) carbodiimide and N-hydroxysuccinimide according to the standard primary amine-coupling procedures, and HBS-EP (10 mM HEPES, 150 mM NaCl, 3 mM EDTA, 0.005% (v/v) surfactant P20, pH 7.4) was used as the running buffer. Equilibration of the baseline was performed by a continuous flow of HBS-EP through the chip surface for 1 to 2 h. Biacore data were collected at 25°C with HBS-EP as the running buffer at a constant flow of 20 μL/min. Fangchinoline or tetradrine was serially diluted into the running buffer to 0, 2.4, 3.43, 4.90, 7.0, 10 and 20 μM. The samples were injected into the channels at a flow rate of 20 μL/min, followed by washing with the running buffer. The binding responses were recorded continuously in response units (RU) at a frequency of 1Hz as sensorgrams and presented as a function of time. The association (k a) and dissociation (k d) rate constants, the equilibrium dissociation constant ( KD=kd/ka ) were determined by analysis of the sensorgram-curves obtained at different concentrations of the compound by use of BIA evaluation software version 3.1 (Biacore) and the 1:1 Langmuir binding fitting model.
In general terms: SPR reads the build-up and loss of mass on a sensor chip optically.

Consider `COc1ccc2cc1Oc1ccc(cc1)C[C@H]1c3cc(c(OC)cc3CCN1C)Oc1c(OC)c(OC)cc3c1[C@H](C2)N(C)CC3` [tetrandrine, reference compound], for which the “Inhibition of enzyme activity of recombinant proteasome β1 subunit” value in assay [1] is given as “directly inhibit”. Further, in assay [2] (Biacore, 25°C, 1:1 Langmuir model), the “Dissociation (k d)” value is 0.0162 S^-1. The Kd in assay [2] (Biacore, 25°C, 1:1 Langmuir model, read-out: Equilibrium dissociation (K D)) is 5.61 µM. Moreover, in assay [2] (pH 7.4, read-out: Association (k a)), the kon was 2890 M⁻¹ s⁻¹.
